Measured values from US9314029B2, “Control and repellency of mosquitoes” (BEDOUKIAN RESEARCH, INC., priority 2012, dated 2016).

Experiments:
Assay type in all cases: in vivo
Aedes aegypti [1] = test: Repellency on treated membrane-covered blood-filled wells; conditions: 20 min; for Avg % Repellency: relative to control
Method: (§1) The invention is illustrated by, but not limited to, the following examples. • Five replicates of 250 adult female mosquitoes each were placed in clear plastic cages with access to five warmed, blood-filled, membrane-covered wells. The mosquitoes were Aedes aegypti unless otherwise noted. Membranes were treated with repellent. Five replicates were tested. Each replicate used a fresh batch of mosquitoes, blood and treated membranes. The number of mosquitoes probing each well was recorded at two minute intervals for 20 minutes. The total numbers of probes on each well were tallied at the end of the observation period and the average percentage repellency relative to the control was calculated for each formulation.

Culex quinquefasciatus = test: as above; conditions: 7% in isopropanol, 20 min; for Avg % Repellency: relative to control
Method: as §1

Aedes aegypti [2] = test: Human forearm-in-cage test, time to first confirmed bite; conditions: max 8 hours
Method: In addition, human testing was performed to determine the efficacy of compounds from structure (I). Mosquito species used are described in the tables below. Each test subject was exposed to 2 products each test day. The application rate was between 0.65 ml and 1 ml/250 cm^2 for all repellents. The actual amount of repellent used was based upon the amount that provides thorough coverage of the 250 cm^2 treatment area. A repellent was applied using either a micropipette or a syringe minus the needle. The repellents were then evenly spread on the treatment area with a gloved finger. Each test subject's forearms were allowed to air dry for approximately 30 minutes prior to the first exposure. The study coordinator or technician assisted the test subjects in inserting their arms into the test cages containing 200 mosquitoes, taking care not to rub them on the cloth sleeve, to confirm that the insects were biting. If fewer than 10 mosquitoes land on the untreated arm in 60 seconds (all would normally bite), fresh mosquitoes will be added. Typically, the ten (10) landings took place within 10-30 seconds. Both treated arms were inserted into a cage; there were two subjects (4 arms) per cage. The test subjects exposed their treated forearms to the mosquitoes in the test cages for 5 minutes. The subjects then remove their arms from the cages with assistance from the study coordinator or a technician. Exposures of each arm were repeated every 30 minutes until the repellent on that arm was determined to be no longer effective (‘breakdown’) or until 8 hours have elapsed, whichever occurred first. Breakdown occurs when the first confirmed bite is noted. A confirmed bite occurs when a bite is followed by a second bite in the same exposure period or in the next succeeding exposure period. The second bite becomes the confirming bite and the breakdown time is taken as the time of the first bite. The average of two repetitions is given.

Aedes aegypti [3] = test: as above; conditions: without the use of polymers or other inert ingredients; species not stated
Aedes aegypti [4] = test: Toxicity to mosquitoes of treated surface (aluminum foil), 5 min exposure; conditions: 2.5% in ethanol, dried on foil
Method: A test was designed to determine if two test samples at 2 concentrations applied to a surface are toxic to mosquitoes. Aluminum foil squares, […] were treated with one of the test samples and after drying were placed on top of large Petri dishes, 6″ in diameter. Inverted polystyrene cups, 3.5″ in diameter and 3″ high, each with a circular hole drilled through the bottom, and the sides and top painted with Fluon, were used as the treatment containers. They were placed on top of the Petri dishes and secured with rubber bands. Mosquitoes were aspirated and gently blown through the drilled hole into the arena. A plastic disc was then placed over the hole. Five replicates of ten female Aedes aegypti were used for the test sample treatment and an additional 5 replicates of 10 mosquitoes were used for solvent control. Mosquitoes were constantly exposed to the dried test material for 5 minutes, after which time they were transferred into clean containers, where they were provided a sucrose solution for nourishment. The formal observations for knockdown were made at 1 and 4 hours. At 24 hours the numbers of live, moribund and dead mosquitoes were counted.

| Compound | Avg # Probes (Aedes aegypti [1]; 7% in isopropanol) | Avg % Repellency (Aedes aegypti [1]; 7% in isopropanol) | Avg # Probes (Aedes aegypti [1]; 5% in isopropanol) | Avg % Repellency (Aedes aegypti [1]; 5% in isopropanol) | other results |
| --- | --- | --- | --- | --- | --- |
| CC/C(C)=C/CC/C(C)=C/CC1CCCC1=O (centres unmarked) [methyl apritone] | 7.6 | 90.4% | – | – | Avg # Probes (Aedes aegypti [1]; 10% in isopropanol): 3.6; Avg % Repellency (Aedes aegypti [1]; 10% in isopropanol): 93.9%; Avg # Probes (Culex quinquefasciatus): 0; Avg % Repellency (Culex quinquefasciatus): 100%; 100% bite protection time (Aedes aegypti [2]; 10% in isopropanol): <0.5 hr ^ |
| CCCCCCCCC1(C)CCC(=O)O1 (centres unmarked) [gamma Methyl Dodecalactone] | – | – | 1 | 98% | – |
| CCCCCCCCC1CCC(=O)O1 (centres unmarked) [gamma-dodecalactone] | 0 | 100% | – | – | Avg # Probes (Culex quinquefasciatus): 0; Avg % Repellency (Culex quinquefasciatus): 100%; 100% bite protection time (Aedes aegypti [2]; 10% in isopropanol): 1.25 h |
| CCCCCC1C(O)CCC1CC(=O)OCC=C(C)C (centres unmarked) [Prenyl Dihydrojasmolate] | 3.2 | 92.2% | – | – | – |
| CCCCCCCC1CCCC(=O)O1 (centres unmarked) [delta-dodecalactone] | 0 | 100% | – | – | – |
| CCCCCCCCCCC1CCC(=O)O1 (centres unmarked) [gamma-tetradecalactone] | 0.8 | 98.9% | – | – | 100% bite protection time (Aedes aegypti [2]; 15% in isopropanol): 0.5 hr^ |
| CCCCCC1C(=O)CCC1CC(=O)OCCC (centres unmarked) [Propyl Dihydrojasmonate] | 2.6 | 95.6% | 4 | 97% | Avg # Probes (Aedes aegypti [1]; 5% in squalane): 0; Avg % Repellency (Aedes aegypti [1]; 5% in squalane): 99%; 100% bite protection time (Aedes aegypti [2]; 15% in isopropanol): <0.5 hr ^; 100% bite protection time (Aedes aegypti [2]; 30% in isopropanol): 1 h; 100% bite protection time (Aedes aegypti [2]; 30% in squalane): 2.75 h; prolonged repellency (Aedes aegypti [3]): ≥ 8 h |
| CCCCCC1C(=O)CCC1CC(=O)N(CC)CC (centres unmarked) [methyl dihydrojasmonate amide] | – | – | 6.8 | 90.1% | Avg # Probes (Aedes aegypti [1]; 2.5% in isopropanol): 18.6; Avg % Repellency (Aedes aegypti [1]; 2.5% in isopropanol): 55% |
| CCN(CC)C(=O)c1cccc(C)c1 [DEET ®, N,N-Diethyl-m-toluamide, reference compound] | – | – | – | – | Avg # Probes (Aedes aegypti [1]; 4% in isopropanol): 8.4; Avg % Repellency (Aedes aegypti [1]; 4% in isopropanol): 90.8%; Avg # Probes (Aedes aegypti [1]; 10% in isopropanol): 0.8; Avg % Repellency (Aedes aegypti [1]; 10% in isopropanol): 98% |
| CCCCCC1C(=O)CCC1CC(=O)OCC=C(C)C (centres unmarked) [Prenyl Dihydrojasmonate] | 2.8 | 92.6% | – | – | – |
| CCCCCC1C(O)CCC1CC(=O)OC (centres unmarked) [Methyl Dihydrojasmolate] | 0 | 100% | – | – | Avg # Probes (Aedes aegypti [1]; 4% in isopropanol): 0.6; Avg % Repellency (Aedes aegypti [1]; 4% in isopropanol): 98.8% |
| CCCCC1CC(=O)C=C(C)C1 (centres unmarked) [3-methyl-5-butyl-2-cyclohexenone] | – | – | 1 | 97% | 1 hr knockdown (Aedes aegypti [4]; 1 hr): 100%; 4 hr knockdown (Aedes aegypti [4]; 4 hr): 100%; 24 hr mortality (Aedes aegypti [4]; 24 hr): 88% |
| farnesyl cyclopentanol | 16.2 | 67.8% | – | – | – |
| CCCCCC1C(O)CCC1CCO (centres unmarked) [dihydrojasmindiol] | 7.2 | 84.3% | – | – | – |
| CCCCCCC1CC(C)=CC(O)C1 (centres unmarked) [3-methyl-5-hexyl-2-cyclohexenol] | – | – | 1 | 91% | – |
